Results reported in patent US8853258B2, “C-linked hydroxamic acid derivatives useful as antibacterial agents” (Pfizer Inc., priority 2009, dated 2014).
In brackets after ≈: the same amount, converted by molar mass. Like-named read-outs stand apart in the source and are kept apart here.

Legend:
Assay type in all cases: cell-based
[1] = system: Klebsiella pneumoniae: Ciprofloxacin-resistant isolate, ESBL, clinical isolate (KP-3700); assay: MIC determination (CLSI), KP-3700
Protocol: (§1) The in vitro antibacterial activity of compounds described in the Examples was evaluated by minimum inhibitory concentration (MIC) testing according to Clinical and Laboratory Standards Institute (CLSI, formerly NCCLS) guidelines. See: Clinical and Laboratory Standards Institute. Methods for Dilution Antimicrobial Susceptibility Tests for Bacteria that Grow Aerobically; Approved Standard-Seventh Edition. CLSI document M7-A7 [ISBN 1-56238-587-9]. Clinical and Laboratory Standards Institute, 940 West Valley Road, Suite 1400, Wayne, Pa. 19087-1898 USA, 2006; also Clinical and Laboratory Standards Institute. Performance Standards for Antimicrobial Susceptibility Testing; Eighteenth Informational Supplement. CLSI document M100-S18 [ISBN1-56238-653-0]. Clinical and Laboratory Standards Institute.
(§2) The following bacterial strains were used in these MIC determinations:
4) Klebsiella pneumoniae: Ciprofloxacin-resistant isolate, expresses extended-spectrum beta-lactamases (ESBL), clinical isolate, labeled as KP-3700 in Tables 1, 2, and 3.

[2] = system: Pseudomonas aeruginosa UI-18: Wild-type (PA-7); assay: MIC determination (CLSI), PA-7; settings: for MIC: Pseudomonas aeruginosa
Protocol: as §1, §2
1) Pseudomonas aeruginosa UI-18: Wild-type, labeled as PA-7 in Tables 1, 2 and 3;

[3] = system: Acinetobacter baumanii/haemolyticus: Multidrug-resistant clinical isolate (AB-3167); assay: MIC determination (CLSI), AB-3167; settings: for MIC: Acinetobacter baumannii
Protocol: as §1, §2
2) Acinetobacter baumanii/haemolyticus: Multidrug-resistant clinical isolate labeled as AB-3167 in Tables 1, 2 and 3;

[4] = system: Escherichia coli EC-1: VOGEL, mouse virulent; assay: MIC determination (CLSI), EC-1; settings: for MIC: Escherichia coli
Protocol: as §1, §2
3) Escherichia coli EC-1: VOGEL, mouse virulent labeled as EC-1 in Tables 1, 2 and 3;

[5] = Pseudomonas aeruginosa UI-18 wild-type PA-7
[6] = Acinetobacter baumanii/haemolyticus multidrug-resistant clinical isolate AB-3167
[7] = Escherichia coli EC-1 VOGEL, mouse virulent
[8] = Table 1, MIC, read-out: PA-7 (MIC)
[9] = Table 1, MIC, read-out: AB-3167 (MIC)

| SMILES | KP-3700 MIC [1] | PA-7 MIC [2, 5] [µg/mL] | AB-3167 MIC [3, 6] | EC-1 MIC [4, 7] | also measured |
| --- | --- | --- | --- | --- | --- |
| CC(CCc1ccc(-c2ccc(C#N)cc2)cn1)(C(=O)NO)S(C)(=O)=O (stereo not shown) [Example 163] | 32 µg/mL | 8 | ≧64 mg/L | 32 µg/mL |  |
| CC(CCc1ccc(OCc2nc(-c3cc(F)cc(F)c3)no2)cc1)(C(=O)NO)S(C)(=O)=O (stereo not shown) [Example 255, 4-(4-{[3-(3,5-difluorophenyl)-1,2,4-oxadiazol-5-yl]methoxy}phenyl)-N-hydroxy-2-methyl-2-(methylsulfonyl)butanamide] | ≧64 mg/L |  |  |  | MIC ([2]; Table 3, read-out: PA-7 MIC): ≥ 64 µg/mL; MIC ([3]; Table 3, read-out: AB-3167 MIC): 16 µg/mL (≈ 33.2 µM); MIC ([4]; read-out: EC-1 MIC): 16 µg/mL (≈ 33.2 µM) |
| CC(C)Oc1ccc(-c2ccc(CCC(C)(C(=O)NO)S(C)(=O)=O)cc2)cc1 (racemic) [Example 49] | 4 µg/mL | 4 | 8 µg/mL | 2 µg/mL |  |
| CC(CCc1ccc(-c2ccc(C[C@H](N)C(=O)O)cc2)cc1)(C(=O)NO)S(C)(=O)=O (stereo partly shown) [Example 231] | ≧64 mg/L |  |  |  | PA-7 MIC ([2]; Pseudomonas aeruginosa UI-18 (PA-7)): 16 µg/mL; AB-3167 MIC ([3]; Acinetobacter baumanii/haemolyticus AB-3167): ≧64 mg/L; EC-1 MIC ([4]; Escherichia coli EC-1): 32 µg/mL |
| CC(CCc1ccc(-c2ccccc2)cn1)(C(=O)NO)S(C)(=O)=O (stereo not shown) [Example 4, N-Hydroxy-2-methyl-2-(methylsulfonyl)-4-(5-phenylpyridin-2-yl)butanamide] | ≧64 mg/L |  |  |  | MIC [2, 8]: 8 µg/mL (≈ 23 µM); MIC [3, 9]: ≥ 64 µg/mL; MIC ([4]; read-out: EC-1: (MIC)): 16 µg/mL (≈ 45.9 µM) |
| CC(CCc1ccc(-c2cc(Cl)ccc2F)cc1)(C(=O)NO)S(C)(=O)=O (racemic) [Example 90] | 8 µg/mL | 8 | 8 µg/mL | 8 µg/mL |  |
| CC(CCc1ccc(-c2ccc(C#N)cc2)cc1)(C(=O)NO)S(C)(=O)=O (stereo not shown) [Example 29] | 2 µg/mL | 1 | ≧64 mg/L | 1 µg/mL |  |
| CC(CCc1ccc(-c2ccccc2O)cc1)(C(=O)NO)S(C)(=O)=O (stereo not shown) [Example 8, N-Hydroxy-4-(2′-hydroxybiphenyl-4-yl)-2-methyl-2-(methylsulfonyl)butanamide] | ≧64 mg/L |  |  |  | MIC [2, 8]: 8 µg/mL (≈ 22 µM); MIC [3, 9]: ≥ 64 µg/mL; MIC ([4]; read-out: EC-1: (MIC)): ≥ 64 µg/mL |
| CC(CCc1ccc(-c2ccc(OCCO)c(F)c2F)cc1)(C(=O)NO)S(C)(=O)=O (stereo not shown) [Example 147] | 8 µg/mL | 1 | 32 µg/mL | 2 µg/mL |  |
| CC(CCc1ccc(OCCC2CCCC2)cc1)(C(=O)NO)S(C)(=O)=O (stereo not shown) [Example 312, 4-[4-(2-cyclopentylethoxy)phenyl]-N-hydroxy-2-methyl-2-(methylsulfonyl)butanamide] | ≧64 mg/L |  |  |  | MIC ([2]; Table 3, read-out: PA-7 MIC): 8 µg/mL (≈ 20.9 µM); MIC ([3]; Table 3, read-out: AB-3167 MIC): 2 µg/mL (≈ 5.21 µM); MIC ([4]; read-out: EC-1 MIC): 8 µg/mL (≈ 20.9 µM) |
| COc1ccc(-c2ccc(CCC(C)(C(=O)NO)S(C)(=O)=O)cc2)cc1 (racemic) [Example 55] | 2 µg/mL | 0.5 | 16 µg/mL | 0.5 µg/mL |  |
| COc1ccc(-c2ccc(CCC(C)(C(=O)NO)S(C)(=O)=O)cc2)c(C)c1 (racemic) [Example 60] | 16 µg/mL | 4 | ≧64 mg/L | 4 µg/mL |  |
| CC(CCc1ccc(-c2ccc(OCCCCN)cc2)cc1)(C(=O)NO)S(C)(=O)=O (stereo not shown) [Example 118] | ≧64 mg/L | 16 | ≧64 mg/L | 32 µg/mL |  |
| CC(CCc1ccc(-c2ccc(CC#N)cc2)cc1)(C(=O)NO)S(C)(=O)=O (stereo not shown) [Example 106] | 8 µg/mL | 1 | ≧64 mg/L | 2 µg/mL |  |
| Cn1cc(-c2ccc(CCC(C)(C(=O)NO)S(C)(=O)=O)cc2)cn1 (stereo not shown) [Example 101] | 32 µg/mL | 8 | ≧64 mg/L | 32 µg/mL |  |
| COc1ccc(-c2ccc(CCC(C)(C(=O)NO)S(C)(=O)=O)cc2)c(OC)c1 (racemic) [Example 65] | 2 µg/mL | 2 | 32 µg/mL | 1 µg/mL |  |
| CC(CCc1ccc(-c2ccc(CCO)cc2F)cc1)(C(=O)NO)S(C)(=O)=O (stereo not shown) [Example 155] | 8 µg/mL | 1 | ≧64 mg/L | 2 µg/mL |  |

| SMILES | KP-3700 MIC [1] | PA-7 MIC [2, 5] [µg/mL] | AB-3167 MIC [3, 6] | EC-1 MIC [4, 7] | also measured |
| --- | --- | --- | --- | --- | --- |
| CC(CCc1ccc(-c2cccc(CO)c2)cc1)(C(=O)NO)S(C)(=O)=O (racemic) [Example 84] | ≧64 mg/L | 16 | ≧64 mg/L | ≧64 mg/L |  |
| CC(CCc1ccc(-c2ccc(C#N)cc2)nc1)(C(=O)NO)S(C)(=O)=O (stereo not shown) [Example 122] | ≧64 mg/L | 8 | ≧64 mg/L | 16 µg/mL |  |
| C[C@@](CCc1ccc(-c2ccc(F)cc2)cc1)(C(=O)NO)S(C)(=O)=O [Example 110] | 4 µg/mL | 0.25 | 8 µg/mL | 2 µg/mL |  |
| CC(CCc1ccc(-c2ccc(C#N)nc2)cc1)(C(=O)NO)S(C)(=O)=O (stereo not shown) [Example 93] | 32 µg/mL | 4 | ≧64 mg/L | 16 µg/mL |  |
| CC(CCc1ccc(-n2cc3ccccc3n2)cc1)(C(=O)NO)S(C)(=O)=O (racemic) [Example 22, (+/−)-N-hydroxy-4-[4-(2H-indazol-2-yl)phenyl]-2-methyl-2-(methylsulfonyl)butanamide] | 8 µg/mL |  |  |  | MIC [2, 8]: 4 µg/mL (≈ 10.3 µM); MIC [3, 9]: ≥ 64 µg/mL; MIC ([4]; read-out: EC-1: (MIC)): 4 µg/mL (≈ 10.3 µM) |
| COc1ccccc1-c1ccc(CCC(C)(C(=O)NO)S(C)(=O)=O)cc1 (stereo not shown) [Example 100] | ≧64 mg/L | 8 | ≧64 mg/L | 32 µg/mL |  |
| CC(CCc1ccc(-c2ccc(C(N)=O)cc2)cc1)(C(=O)NO)S(C)(=O)=O (stereo not shown) [Example 96] | ≧64 mg/L | 8 | ≧64 mg/L | ≧64 mg/L |  |
| CC(CCc1ccc(-c2ccc(O)cc2F)cc1)(C(=O)NO)S(C)(=O)=O (stereo not shown) [Example 149] | 8 µg/mL | 1 | ≧64 mg/L | 2 µg/mL |  |
| CC(CCc1ccc(-c2ccc(F)cc2)cc1)(C(=O)NO)S(C)(=O)=O (stereo not shown) [Example 27] | 4 µg/mL | 1 | 8 µg/mL | 2 µg/mL |  |
| CC(C)Oc1ccc(CCC(C)(C(=O)NO)S(C)(=O)=O)cc1 (stereo not shown) [Example 234, N-hydroxy-4-(4-isopropoxyphenyl)-2-methyl-2-(methylsulfonyl)butanamide] | ≧64 mg/L |  |  |  | MIC ([2]; Table 3, read-out: PA-7 MIC): 8 µg/mL (≈ 24.3 µM); MIC ([3]; Table 3, read-out: AB-3167 MIC): ≥ 64 µg/mL; MIC ([4]; read-out: EC-1 MIC): ≥ 64 µg/mL |
| CC(CCc1ccc(-c2ccc(C#N)c(F)c2)cc1)(C(=O)NO)S(C)(=O)=O (stereo not shown) [Example 45] | 4 µg/mL | 1 | ≧64 mg/L | 0.5 µg/mL |  |
| CS(=O)(=O)C(CCc1ccc(-c2ccc(F)cc2)cc1)C(=O)NO (stereo not shown) [Example 24, 4-(4′-Fluorobiphenyl-4-yl)-N-hydroxy-2-(methylsulfonyl)butanamide] | 32 µg/mL |  |  |  | MIC [2, 8]: 1 µg/mL (≈ 2.85 µM); MIC [3, 9]: 32 µg/mL (≈ 91.1 µM); MIC ([4]; read-out: EC-1: (MIC)): 32 µg/mL (≈ 91.1 µM) |
| CC(CCc1ccc(OCc2cccc(Cl)c2)cc1)(C(=O)NO)S(C)(=O)=O (stereo not shown) [Example 250, 4-{4-[(3-chlorobenzyl)oxy]phenyl}-N-hydroxy-2-methyl-2-(methylsulfonyl)butanamide] | 8 µg/mL |  |  |  | MIC ([2]; Table 3, read-out: PA-7 MIC): 4 µg/mL (≈ 9.71 µM); MIC ([3]; Table 3, read-out: AB-3167 MIC): 4 µg/mL (≈ 9.71 µM); MIC ([4]; read-out: EC-1 MIC): 2 µg/mL (≈ 4.86 µM) |
| CC(CCc1ccc(-c2ccc(F)cc2)nc1)(C(=O)NO)S(C)(=O)=O (stereo not shown) [Example 119] | ≧64 mg/L | 8 | ≧64 mg/L | 16 µg/mL |  |
| CC(CCc1ccc(-c2ccoc2)cc1)(C(=O)NO)S(C)(=O)=O (stereo not shown) [Example 95] | 16 µg/mL | 4 | ≧64 mg/L | 16 µg/mL |  |
| CC(CCc1ccc(-c2c(F)cccc2F)cc1)(C(=O)NO)S(C)(=O)=O (racemic) [Example 54] | 16 µg/mL | 1 | 16 µg/mL | 4 µg/mL |  |
| CC(CCc1ccc(-c2ccc(S(C)(=O)=O)cc2)cc1)(C(=O)NO)S(C)(=O)=O (racemic) [Example 79] | ≧64 mg/L | 4 | ≧64 mg/L | 32 µg/mL |  |
